Measured values as given in article PMC8799717, “Pharmacological targeting PIKfyve and tubulin as an effective treatment strategy for double-hit lymphoma” (Cell Death Discovery, 2022).

Key:
Assay in all cases: biochemical
Parameters in all cases: KINOMEscan active-site-directed competition binding panel, 468 kinases, percent of DMSO control at 1 uM
Conditions in all cases: KINOMEscan binding, percent of DMSO control; read-out: Ctrl%
TIE2 = target: T1, TIE2 (Homo sapiens, UniProt Q02763)
T1 construct: gene TEK

PRKCE = PRKCE (Homo sapiens, UniProt Q02156)
MKNK2 = MKNK2 (Homo sapiens, UniProt Q9HBH9)
Sequence of MKNK2 (Q9HBH9 whole entry): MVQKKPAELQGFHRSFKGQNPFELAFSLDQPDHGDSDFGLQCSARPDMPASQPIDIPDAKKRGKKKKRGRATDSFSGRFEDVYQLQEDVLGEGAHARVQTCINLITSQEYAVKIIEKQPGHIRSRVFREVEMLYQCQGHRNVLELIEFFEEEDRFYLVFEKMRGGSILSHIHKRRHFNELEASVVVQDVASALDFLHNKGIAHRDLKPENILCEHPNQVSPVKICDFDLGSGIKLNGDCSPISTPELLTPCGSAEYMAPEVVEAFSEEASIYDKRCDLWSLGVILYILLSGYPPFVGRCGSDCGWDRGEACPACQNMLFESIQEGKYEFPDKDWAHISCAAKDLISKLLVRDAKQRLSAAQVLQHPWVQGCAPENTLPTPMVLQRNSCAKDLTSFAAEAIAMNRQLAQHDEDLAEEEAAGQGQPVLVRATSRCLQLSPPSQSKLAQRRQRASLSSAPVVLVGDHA

PKAC-alpha = target: T2, PKAC-alpha (Homo sapiens, UniProt P17612)
T2 construct: gene PRKACA

[1] = target: T3, RPS6KA5(Kin.Dom.1-N-terminal) (Homo sapiens, UniProt O75582)
T3 construct: Kin.Dom.1-N-terminal
T3 sequence (O75582 whole entry): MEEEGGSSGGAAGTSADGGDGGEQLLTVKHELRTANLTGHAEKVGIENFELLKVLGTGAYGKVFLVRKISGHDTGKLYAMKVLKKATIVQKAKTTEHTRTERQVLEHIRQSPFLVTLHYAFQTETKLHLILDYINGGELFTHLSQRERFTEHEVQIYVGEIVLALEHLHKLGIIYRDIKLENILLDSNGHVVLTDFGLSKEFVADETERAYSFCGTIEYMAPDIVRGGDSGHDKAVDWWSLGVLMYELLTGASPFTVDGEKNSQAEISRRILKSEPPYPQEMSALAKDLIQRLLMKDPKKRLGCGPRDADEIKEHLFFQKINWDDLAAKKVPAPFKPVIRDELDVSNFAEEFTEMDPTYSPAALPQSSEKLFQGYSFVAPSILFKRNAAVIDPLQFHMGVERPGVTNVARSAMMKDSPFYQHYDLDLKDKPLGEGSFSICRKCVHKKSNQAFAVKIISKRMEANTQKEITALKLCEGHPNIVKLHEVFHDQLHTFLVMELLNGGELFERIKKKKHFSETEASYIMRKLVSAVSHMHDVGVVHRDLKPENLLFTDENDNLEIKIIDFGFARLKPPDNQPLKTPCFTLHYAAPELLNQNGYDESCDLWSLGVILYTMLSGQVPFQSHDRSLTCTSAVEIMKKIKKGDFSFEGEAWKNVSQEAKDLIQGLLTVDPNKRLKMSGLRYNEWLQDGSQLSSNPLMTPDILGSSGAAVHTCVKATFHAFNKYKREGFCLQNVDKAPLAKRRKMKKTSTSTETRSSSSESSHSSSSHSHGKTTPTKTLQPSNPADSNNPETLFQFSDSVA

PIM1 = PIM1 (Homo sapiens, UniProt P11309)
RIOK3 = RIOK3 (Homo sapiens, UniProt O14730)
Sequence of RIOK3 (O14730 whole entry): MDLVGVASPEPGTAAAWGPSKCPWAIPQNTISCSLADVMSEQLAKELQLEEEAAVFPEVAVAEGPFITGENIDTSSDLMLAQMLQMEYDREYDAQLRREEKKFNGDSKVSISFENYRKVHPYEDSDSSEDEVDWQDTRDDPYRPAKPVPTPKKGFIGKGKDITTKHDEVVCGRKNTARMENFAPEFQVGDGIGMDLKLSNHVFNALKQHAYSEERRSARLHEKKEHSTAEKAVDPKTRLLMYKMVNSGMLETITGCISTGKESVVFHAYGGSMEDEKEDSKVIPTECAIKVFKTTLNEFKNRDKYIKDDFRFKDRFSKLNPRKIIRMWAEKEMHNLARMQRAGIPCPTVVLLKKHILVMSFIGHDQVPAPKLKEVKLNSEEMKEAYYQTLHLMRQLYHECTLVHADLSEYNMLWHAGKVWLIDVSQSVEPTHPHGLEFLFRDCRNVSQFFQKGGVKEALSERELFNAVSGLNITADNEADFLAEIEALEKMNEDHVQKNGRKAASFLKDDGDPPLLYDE

CAMK2A = CAMK2A (Homo sapiens, UniProt Q9UQM7)
TNIK = TNIK (Homo sapiens, UniProt Q9UKE5)
KIT(V559D) = KIT(V559D) (Homo sapiens, UniProt P10721, V559D)
PIP5K2C = target: T4, PIP5K2C (Homo sapiens, UniProt Q8TBX8)
T4 construct: gene PIP4K2C

LKB1 = target: T5, LKB1 (Homo sapiens, UniProt Q15831)
T5 construct: gene STK11
T5 sequence (Q15831 whole entry): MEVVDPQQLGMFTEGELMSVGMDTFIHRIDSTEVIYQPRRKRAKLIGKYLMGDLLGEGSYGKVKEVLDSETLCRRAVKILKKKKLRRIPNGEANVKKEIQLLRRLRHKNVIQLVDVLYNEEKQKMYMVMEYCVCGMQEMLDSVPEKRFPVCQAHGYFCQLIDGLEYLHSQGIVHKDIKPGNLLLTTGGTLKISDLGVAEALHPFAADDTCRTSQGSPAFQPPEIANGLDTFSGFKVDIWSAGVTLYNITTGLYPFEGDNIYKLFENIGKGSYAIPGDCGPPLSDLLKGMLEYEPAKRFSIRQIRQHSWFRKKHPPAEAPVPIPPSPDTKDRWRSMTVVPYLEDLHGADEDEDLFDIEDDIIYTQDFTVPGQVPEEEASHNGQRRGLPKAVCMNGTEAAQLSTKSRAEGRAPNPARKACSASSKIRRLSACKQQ

BMX = BMX (Homo sapiens, UniProt P51813)
PFTK1 = target: T6, PFTK1 (Homo sapiens, UniProt O94921)
T6 construct: gene CDK14

IRAK4 = IRAK4 (Homo sapiens, UniProt Q9NWZ3)
Sequence of IRAK4 (Q9NWZ3 whole entry): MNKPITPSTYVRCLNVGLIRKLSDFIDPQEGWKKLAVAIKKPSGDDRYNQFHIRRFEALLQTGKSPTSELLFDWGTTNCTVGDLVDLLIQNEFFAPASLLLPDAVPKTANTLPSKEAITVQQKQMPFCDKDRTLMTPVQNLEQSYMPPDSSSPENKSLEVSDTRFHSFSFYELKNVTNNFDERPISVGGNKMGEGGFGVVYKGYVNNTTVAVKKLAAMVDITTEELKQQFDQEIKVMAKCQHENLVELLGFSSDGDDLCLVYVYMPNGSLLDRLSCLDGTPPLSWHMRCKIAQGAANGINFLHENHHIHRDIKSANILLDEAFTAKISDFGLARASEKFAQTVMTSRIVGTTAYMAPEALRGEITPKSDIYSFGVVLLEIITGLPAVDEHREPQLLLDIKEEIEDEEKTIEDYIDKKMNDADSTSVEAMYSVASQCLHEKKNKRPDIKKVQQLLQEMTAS

ALK(C1156Y) = ALK(C1156Y) (Homo sapiens, UniProt Q9UM73, C1156Y)
LOK = target: T7, LOK (Homo sapiens, UniProt O94804)
T7 construct: gene STK10

TRKC = target: T8, TRKC (Homo sapiens, UniProt Q16288)
T8 construct: gene NTRK3
T8 sequence (Q16288 whole entry): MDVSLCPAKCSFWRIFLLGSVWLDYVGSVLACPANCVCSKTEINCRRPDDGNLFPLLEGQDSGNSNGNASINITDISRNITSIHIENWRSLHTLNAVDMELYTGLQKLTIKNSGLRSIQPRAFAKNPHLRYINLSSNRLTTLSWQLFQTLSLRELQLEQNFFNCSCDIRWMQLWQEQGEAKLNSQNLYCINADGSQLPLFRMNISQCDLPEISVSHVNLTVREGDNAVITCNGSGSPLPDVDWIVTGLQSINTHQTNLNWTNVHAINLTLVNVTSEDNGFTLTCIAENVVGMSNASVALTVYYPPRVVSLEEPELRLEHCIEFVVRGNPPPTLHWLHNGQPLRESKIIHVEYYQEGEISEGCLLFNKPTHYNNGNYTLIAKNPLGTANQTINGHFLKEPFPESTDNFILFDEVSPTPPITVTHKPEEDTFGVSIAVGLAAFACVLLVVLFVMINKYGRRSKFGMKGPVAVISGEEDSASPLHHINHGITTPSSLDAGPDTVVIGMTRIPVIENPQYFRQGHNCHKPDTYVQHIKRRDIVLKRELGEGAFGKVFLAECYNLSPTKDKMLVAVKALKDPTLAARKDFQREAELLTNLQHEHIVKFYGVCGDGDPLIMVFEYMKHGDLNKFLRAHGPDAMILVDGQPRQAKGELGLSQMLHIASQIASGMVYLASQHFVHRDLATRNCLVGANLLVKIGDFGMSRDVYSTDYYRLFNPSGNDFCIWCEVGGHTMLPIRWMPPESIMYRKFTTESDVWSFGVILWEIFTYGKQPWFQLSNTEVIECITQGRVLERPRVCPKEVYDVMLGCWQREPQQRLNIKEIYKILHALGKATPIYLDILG

[2] = target: T9, ABL1(M351T)-phosphorylated (Homo sapiens, UniProt P00519, M351T)
T9 construct: phosphorylated

CHEK2 = CHEK2 (Homo sapiens, UniProt O96017)
YES = target: T10, YES (Homo sapiens, UniProt P07947)
T10 construct: gene YES1
T10 sequence (P07947 whole entry): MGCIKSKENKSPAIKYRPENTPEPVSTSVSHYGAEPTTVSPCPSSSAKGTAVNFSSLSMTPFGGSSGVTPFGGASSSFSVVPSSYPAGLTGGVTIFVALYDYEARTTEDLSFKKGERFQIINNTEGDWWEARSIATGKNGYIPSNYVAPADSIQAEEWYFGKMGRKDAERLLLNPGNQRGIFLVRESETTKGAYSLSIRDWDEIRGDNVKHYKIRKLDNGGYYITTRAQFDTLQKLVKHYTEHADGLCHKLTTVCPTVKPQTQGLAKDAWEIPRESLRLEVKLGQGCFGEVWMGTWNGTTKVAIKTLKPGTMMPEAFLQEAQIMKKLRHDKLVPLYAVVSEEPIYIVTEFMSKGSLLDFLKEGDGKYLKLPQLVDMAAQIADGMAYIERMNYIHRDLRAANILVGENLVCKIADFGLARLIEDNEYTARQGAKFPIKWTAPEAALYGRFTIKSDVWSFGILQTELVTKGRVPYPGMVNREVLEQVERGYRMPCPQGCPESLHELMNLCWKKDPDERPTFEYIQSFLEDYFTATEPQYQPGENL

ACVR2B = ACVR2B (Homo sapiens, UniProt Q13705)
FGFR3(G697C) = FGFR3(G697C) (Homo sapiens, UniProt P22607, G697C)
Sequence of FGFR3(G697C) (P22607 whole entry G697C): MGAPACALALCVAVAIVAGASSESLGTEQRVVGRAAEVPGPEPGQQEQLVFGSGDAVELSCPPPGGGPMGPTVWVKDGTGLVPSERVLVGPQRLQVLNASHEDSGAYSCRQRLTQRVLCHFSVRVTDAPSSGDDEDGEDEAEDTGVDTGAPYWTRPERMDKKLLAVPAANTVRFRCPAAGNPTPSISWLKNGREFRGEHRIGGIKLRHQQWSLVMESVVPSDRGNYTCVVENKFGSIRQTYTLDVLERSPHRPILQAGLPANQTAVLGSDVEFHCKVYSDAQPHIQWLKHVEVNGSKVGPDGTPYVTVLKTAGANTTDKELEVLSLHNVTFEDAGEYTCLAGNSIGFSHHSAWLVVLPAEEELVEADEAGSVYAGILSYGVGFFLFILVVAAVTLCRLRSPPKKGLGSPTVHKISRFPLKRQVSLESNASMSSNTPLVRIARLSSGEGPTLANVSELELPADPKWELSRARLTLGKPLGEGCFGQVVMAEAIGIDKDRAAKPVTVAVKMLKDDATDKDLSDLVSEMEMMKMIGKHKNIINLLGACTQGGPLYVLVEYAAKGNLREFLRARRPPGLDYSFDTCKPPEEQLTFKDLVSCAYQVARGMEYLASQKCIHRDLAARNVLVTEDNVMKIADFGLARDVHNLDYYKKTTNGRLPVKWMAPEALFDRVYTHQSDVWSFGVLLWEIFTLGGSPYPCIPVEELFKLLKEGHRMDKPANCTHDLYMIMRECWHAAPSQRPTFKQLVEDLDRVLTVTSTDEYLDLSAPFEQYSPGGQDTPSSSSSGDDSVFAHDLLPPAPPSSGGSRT

CDKL5 = CDKL5 (Homo sapiens, UniProt O76039)

## Cc1ccc(NC(=O)c2cccc(C(F)(F)F)c2)cc1Nc1cc(-c2cccnc2)nc2[nH]ccc12 [HZX-02-059]
TIE2
  remaining binding at 1 µM: 66%
PRKCE
  remaining binding at 1 µM: 96%
MKNK2
  remaining binding at 1 µM: 80%
PKAC-alpha
  remaining binding at 1 µM: 94%
[1]
  remaining binding at 1 µM: 94%
PIM1
  remaining binding at 1 µM: 92%
RIOK3
  remaining binding at 1 µM: 100%
CAMK2A
  remaining binding at 1 µM: 98%
TNIK
  remaining binding at 1 µM: 100%
KIT(V559D)
  remaining binding at 1 µM: 0.9%
PIP5K2C
  remaining binding at 1 µM: 43%
LKB1
  remaining binding at 1 µM: 72%
BMX
  remaining binding at 1 µM: 80%
PFTK1
  remaining binding at 1 µM: 98%
IRAK4
  remaining binding at 1 µM: 100%
ALK(C1156Y)
  remaining binding at 1 µM: 99%
LOK
  remaining binding at 1 µM: 47%
TRKC
  remaining binding at 1 µM: 100%
[2]
  remaining binding at 1 µM: 48%
CHEK2
  remaining binding at 1 µM: 61%
YES
  remaining binding at 1 µM: 86%
ACVR2B
  remaining binding at 1 µM: 71%
FGFR3(G697C)
  remaining binding at 1 µM: 100%
CDKL5
  remaining binding at 1 µM: 90%
